{"source": "patent US5807860A", "about": "“Urea derivatives” (Mitsubishi Chemical Corporation, priority 1995, dated 1998)", "note": "Where a name gives a salt, the structure may show the parent alone."}
{"target": "T1, ACAT in foamed macrophages (Mus musculus, UniProt Q61263)", "T1 construct": "endogenous in cells; host or cells: peritoneal macrophages of ddY female mice, foamed with acetylated LDL", "T1 sequence (Q61263 1-540)": "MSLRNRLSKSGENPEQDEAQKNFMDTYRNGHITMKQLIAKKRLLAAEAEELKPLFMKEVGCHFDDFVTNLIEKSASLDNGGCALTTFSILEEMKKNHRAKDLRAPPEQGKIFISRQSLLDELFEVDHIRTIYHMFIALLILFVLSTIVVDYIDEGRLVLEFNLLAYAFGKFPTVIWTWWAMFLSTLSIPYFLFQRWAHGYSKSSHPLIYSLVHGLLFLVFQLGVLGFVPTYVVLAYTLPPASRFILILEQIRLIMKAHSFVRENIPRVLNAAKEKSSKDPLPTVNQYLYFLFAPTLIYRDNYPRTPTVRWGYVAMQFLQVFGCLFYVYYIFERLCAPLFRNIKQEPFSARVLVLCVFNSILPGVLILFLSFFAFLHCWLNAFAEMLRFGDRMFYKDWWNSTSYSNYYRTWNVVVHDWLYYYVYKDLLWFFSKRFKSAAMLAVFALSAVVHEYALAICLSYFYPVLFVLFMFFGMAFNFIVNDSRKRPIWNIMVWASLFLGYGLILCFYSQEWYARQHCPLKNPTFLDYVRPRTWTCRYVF", "assay": "Inhibitory activity against ACAT derived from foamed macrophages", "format": "cell-based, mouse (ddY female mice)", "settings": "foamed macrophages from ddY female mice; acetylated LDL, 24 hours; cholesterol oleate produced; read-out: Inhibitory activity against ACAT, Macrophage (IC50)", "experimental": "Inhibitory Activity against ACAT Derived from Foamed Macrophages\nInhibitory activity of the compounds of the present invention against ACAT in foamed macrophages was measured by the methods set out below. Acetylated low density lipoprotein was added to macrophages taken from abdominal cavities of ddY female mice and the cells were incubated for 24 hours to obtain foaming macrophages. These cells accumulated a large amount of cholesterol (ester) inside the cells, and are used as a model of arteriosclerosis lesion. ACAT activity of the cells was determined by adding a complex of radio-labelled oleic acid and bovine serum albumin to the cell culture, and observing the amount of radio-labelled cholesterol oleate that was produced from the radio-labelled oleic acid in the cells. The inhibitory activities of the compounds of the present invention against ACAT were measured as follows: percent reduction rates of enzymatic activity by the addition of given concentrations of test compounds was observed on the basis of the amount of the produced cholesterol oleate in the control group without the addition of a test compound, and by using the results, IC50, i.e., concentrations of tested compounds required to inhibit 50% of the enzyme activity, was calculated.", "units": {"IC50": "nM"}}
{"molecule": "CCCCCN(Cc1cc(-n2ccnc2)ccc1OC)C(=O)Nc1c(C)cccc1OCCCN1CCN(c2ccccc2)CC1", "note": "[Example 2, N-{5-(1-imidazolyl)-2-methoxyphenyl}methyl-N-(1-pentyl)-N'-[2-{3-(4-phenyl-1-piperazinyl)propoxy}-6-methyphenyl]urea trihydrochloride]", "IC50": 131}
{"molecule": "CCCCCN(Cc1cc(-n2ccnc2)ccc1OC)C(=O)Nc1c(C)cccc1OCCN1CCN(c2ccccc2)CC1", "note": "[Example 18]", "IC50": 440}
{"molecule": "CCCCCN(Cc1ccc(OCc2ccccn2)cc1)C(=O)Nc1c(C)cccc1OCCCN1CCN(c2ccccc2)CC1", "note": "[Example 34]", "IC50": 119}
{"molecule": "CCCCCN(Cc1ccc(OC)c(-n2ccnc2)c1)C(=O)Nc1c(C)cccc1OCCCN1CCN(c2ccccc2)CC1", "note": "[Example 58]", "IC50": 1050}
{"target": "T2, ACAT of HepG2 cells (Homo sapiens, UniProt P35610)", "T2 construct": "endogenous in cells; host or cells: HepG2", "T2 sequence (P35610 1-550)": "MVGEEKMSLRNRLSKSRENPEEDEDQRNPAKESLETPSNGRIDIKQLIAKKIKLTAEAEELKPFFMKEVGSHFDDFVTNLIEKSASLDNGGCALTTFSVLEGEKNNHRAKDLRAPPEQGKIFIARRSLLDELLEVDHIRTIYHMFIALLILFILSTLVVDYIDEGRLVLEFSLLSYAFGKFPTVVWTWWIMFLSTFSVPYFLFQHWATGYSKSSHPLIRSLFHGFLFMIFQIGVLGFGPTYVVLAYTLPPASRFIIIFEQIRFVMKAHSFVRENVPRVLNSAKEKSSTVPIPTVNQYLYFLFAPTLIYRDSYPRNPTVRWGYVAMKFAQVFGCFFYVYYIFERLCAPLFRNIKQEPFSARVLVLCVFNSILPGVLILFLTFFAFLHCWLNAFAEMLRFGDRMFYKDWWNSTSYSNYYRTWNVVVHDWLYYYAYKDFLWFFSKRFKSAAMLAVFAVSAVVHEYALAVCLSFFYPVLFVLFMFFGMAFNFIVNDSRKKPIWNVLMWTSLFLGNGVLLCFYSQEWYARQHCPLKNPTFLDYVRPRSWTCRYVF", "assay": "Inhibitory activity against ACAT of HepG2 cells derived from human liver cancer cells", "format": "cell-based", "settings": "radio-labelled oleic acid/BSA complex, cholesterol oleate produced", "experimental": "Inhibitory Activity against ACAT of HepG2 cells Derived from Human Liver Cancer Cells Inhibitory activities of the compounds of the present invention against ACAT were measured by the method described below. HepG2 cells derived from human liver cancer cells were used for the measurement of the ACAT activity. A complex of radio-labelled oleic acid and bovine serum albumin was added to a culture of the cells, and the activity was measured by observing the amount of radio-labelled cholesterol oleate produced from the radio-labelled oleic acid in the cells.", "units": {"IC50": "nM"}}
{"molecule": "CCCCCN(Cc1cc(-n2ccnc2)ccc1OC)C(=O)Nc1c(C)cccc1OCCCN1CCN(c2ccccc2)CC1", "note": "[Example 1, N-{5-(1-imidazolyl)-2-methoxyphenyl}methyl-N-(1-pentyl)-N'-[2-{3-(4-phenyl-1-piperazinyl)propoxy}-6-methylphenyl]urea]", "IC50": 128}
{"molecule": "CCCCCN(Cc1cc(-n2ccnc2)ccc1OC)C(=O)Nc1c(C)cccc1OCCCN1CCN(c2ccccc2)CC1", "note": "[Example 2, N-{5-(1-imidazolyl)-2-methoxyphenyl}methyl-N-(1-pentyl)-N'-[2-{3-(4-phenyl-1-piperazinyl)propoxy}-6-methyphenyl]urea trihydrochloride]", "IC50": 101}
{"molecule": "CCCCCCCN(Cc1cccc(OC)c1OCc1ccccc1)C(=O)Nc1c(OCCCN2CCN(c3ccccc3)CC2)ccc2c1CCCC2", "note": "[Example 8]", "IC50": 414}
{"molecule": "COc1cccc(CN(CCCc2ccccc2)C(=O)Nc2c(OCCCN3CCN(c4ccccc4)CC3)ccc3c2CCCC3)c1OCc1ccccc1", "note": "[Example 9]", "IC50": 366}
{"molecule": "CCCCCN(Cc1ccc(-n2ccnc2)cc1)C(=O)Nc1c(OCCCN2CCN(c3ccccc3)CC2)ccc2c1CCCC2", "note": "[Example 10]", "IC50": 389}
{"molecule": "CCCCCN(Cc1ccc(-n2ccnc2)cc1)C(=O)Nc1c(C)cccc1OCCCN1CCN(c2ccccc2)CC1", "note": "[Example 11]", "IC50": 189}
{"molecule": "CCCCCN(Cc1ccc(-n2ccnc2)cc1)C(=O)Nc1c(C)cccc1OCCCN1CCN(c2ccccn2)CC1", "note": "[Example 12]", "IC50": 595}
{"molecule": "COc1ccc(-n2ccnc2)cc1CN(Cc1ccccc1)C(=O)Nc1c(OCCCN2CCN(c3ccccc3)CC2)ccc2c1CCCC2", "note": "[Example 13]", "IC50": 67}
{"molecule": "COc1ccc(-n2ccnc2)cc1CN(Cc1ccccc1)C(=O)Nc1c(C)cccc1OCCCN1CCN(c2ccccc2)CC1", "note": "[Example 14]", "IC50": 240}
{"molecule": "CCCCCN(Cc1ccccc1-n1ccnc1)C(=O)Nc1c(C)cccc1OCCCN1CCN(c2ccccc2)CC1", "note": "[Example 15]", "IC50": 516}
{"molecule": "CCCCCN(Cc1cc(-n2ccnc2)ccc1OC)C(=O)Nc1c(C)cccc1OCCCN1CCN(c2ccccn2)CC1", "note": "[Example 17]", "IC50": 363}
{"molecule": "CCCCCN(Cc1cc(-n2ccnc2)ccc1OC)C(=O)Nc1c(C)cccc1OCCN1CCN(c2ccccc2)CC1", "note": "[Example 18]", "IC50": 164}
{"molecule": "CCCN(Cc1cc(-n2ccnc2)ccc1OC)C(=O)Nc1c(C)cccc1OCCCN1CCN(c2ccccc2)CC1", "note": "[Example 19]", "IC50": 156}
{"molecule": "CCCCCN(Cc1cc(-n2ccnc2)cc(OC)c1OC)C(=O)Nc1c(C)cccc1OCCCN1CCN(c2ccccc2)CC1", "note": "[Example 20]", "IC50": 851}
{"molecule": "CCCN(Cc1cc(-n2ccnc2)cc2c1OCO2)C(=O)Nc1c(C)cccc1OCCCN1CCN(c2ccccc2)CC1", "note": "[Example 23]", "IC50": 634}
{"molecule": "CCCCCN(Cc1cc(-n2ccnc2)cc2c1OCO2)C(=O)Nc1c(C)cccc1OCCCN1CCN(c2ccccc2)CC1", "note": "[Example 24]", "IC50": 449}
{"molecule": "CCCCCN(Cc1cccc(OC)c1OCc1ccccn1)C(=O)Nc1c(C)cccc1OCCCN1CCN(c2ccccc2)CC1", "note": "[Example 26]", "IC50": 743}
{"molecule": "CCCCCN(Cc1cccc(OC)c1OCc1ccccn1)C(=O)Nc1c(OCCCN2CCN(c3ccccc3)CC2)ccc2c1CCCC2", "note": "[Example 28]", "IC50": 732}
{"molecule": "CCCCCN(Cc1cc(-n2ccnc2)ccc1OCc1ccccn1)C(=O)Nc1c(C)cccc1OCCCN1CCN(c2ccccc2)CC1", "note": "[Example 30]", "IC50": 234}
{"molecule": "CCCCCN(Cc1cc(-n2ccnc2)ccc1OCc1ccccn1)C(=O)Nc1c(C)cccc1OCCCN1CCN(c2ccccc2)CC1", "note": "[Example 31]", "IC50": 138}
{"molecule": "CCCCCN(Cc1ccccc1OCc1ccccn1)C(=O)Nc1c(C)cccc1OCCCN1CCN(c2ccccc2)CC1", "note": "[Example 32]", "IC50": 600}
{"molecule": "CCCCCN(Cc1ccc(OCc2ccccn2)cc1)C(=O)Nc1c(C)cccc1OCCCN1CCN(c2ccccc2)CC1", "note": "[Example 34]", "IC50": 89}
{"molecule": "CCCCCN(Cc1cccc(OCc2ccccn2)c1)C(=O)Nc1c(C)cccc1OCCCN1CCN(c2ccccc2)CC1", "note": "[Example 36]", "IC50": 270}
{"molecule": "CCCCCN(Cc1cccc(-n2ccnc2)c1)C(=O)Nc1c(C)cccc1OCCCN1CCN(c2ccccc2)CC1", "note": "[Example 37]", "IC50": 220}
{"molecule": "CCCCCN(Cc1ccc(-n2ccnc2)cc1)C(=O)Nc1c(C)cccc1OCCCN1CCN(c2ccccc2)CC1", "note": "[Example 38]", "IC50": 282}
{"molecule": "CCCCCN(Cc1ccc(OC)cc1OCc1ccccn1)C(=O)Nc1c(C)cccc1OCCCN1CCN(c2ccccc2)CC1", "note": "[Example 40]", "IC50": 320}
{"molecule": "CCCCCN(Cc1ccc(OCc2ccccn2)c(OC)c1)C(=O)Nc1c(C)cccc1OCCCN1CCN(c2ccccc2)CC1", "note": "[Example 44]", "IC50": 400}
{"molecule": "CCCCCN(CCc1ccc(-n2ccnc2)c(OC)c1)C(=O)Nc1c(C)cccc1OCCCN1CCN(c2ccccc2)CC1", "note": "[Example 46]", "IC50": 76}
{"molecule": "CCCCCN(Cc1cc(-n2cccn2)ccc1OC)C(=O)Nc1c(C)cccc1OCCCN1CCN(c2ccccc2)CC1", "note": "[Example 47]", "IC50": 81}
{"molecule": "CCCCCN(Cc1cc(-n2cncn2)ccc1OC)C(=O)Nc1c(C)cccc1OCCCN1CCN(c2ccccc2)CC1", "note": "[Example 49]", "IC50": 45}
{"molecule": "CCCCCN(CCc1cc(-n2ccnc2)cc2c1OCO2)C(=O)Nc1c(C)cccc1OCCCN1CCN(c2ccccc2)CC1", "note": "[Example 53]", "IC50": 606}
{"molecule": "CCCCCN(Cc1cc(-n2cccc2)ccc1OC)C(=O)Nc1c(C)cccc1OCCCN1CCN(c2ccccc2)CC1", "note": "[Example 55]", "IC50": 483}
{"molecule": "CCCCCN(CCc1cc(-n2ccnc2)ccc1OC)C(=O)Nc1c(C)cccc1OCCCN1CCN(c2ccccc2)CC1", "note": "[Example 56]", "IC50": 54}
{"molecule": "CCCCCN(Cc1cc(OC)ccc1-n1ccnc1)C(=O)Nc1c(C)cccc1OCCCN1CCN(c2ccccc2)CC1", "note": "[Example 57]", "IC50": 220}
{"molecule": "CCCCCN(Cc1ccc(OC)c(-n2ccnc2)c1)C(=O)Nc1c(C)cccc1OCCCN1CCN(c2ccccc2)CC1", "note": "[Example 58]", "IC50": 584}
{"molecule": "O=C(Nc1c(OCCCN2CCN(c3ccccc3)CC2)ccc2c1CCCC2)N(CCCc1ccccc1)Cc1ccccc1OCc1ccccn1", "note": "[Example 67]", "IC50": 124}
{"molecule": "CCCN(Cc1ccccc1OCc1ccccn1)C(=O)Nc1c(OCCCN2CCN(c3ccccc3)CC2)ccc2c1CCCC2", "note": "[Example 68]", "IC50": 187}
{"molecule": "CCCN(Cc1ccccc1OCc1cccnc1)C(=O)Nc1c(OCCCN2CCN(c3ccccc3)CC2)ccc2c1CCCC2", "note": "[Example 69]", "IC50": 289}
{"molecule": "CCCN(Cc1ccccc1OCc1ccncc1)C(=O)Nc1c(OCCCN2CCN(c3ccccc3)CC2)ccc2c1CCCC2", "note": "[Example 70]", "IC50": 631}
{"molecule": "CN(Cc1ccccc1OCc1ccccn1)C(=O)Nc1c(OCCCN2CCN(c3ccccc3)CC2)ccc2c1CCCC2", "note": "[Example 71]", "IC50": 635}
{"molecule": "COc1ccc(-n2ccnc2)cc1CN(C(=O)Nc1c(C)cccc1OCCCN1CCN(c2ccccc2)CC1)C1CCCC1", "note": "[Example 72]", "IC50": 262}
{"molecule": "COc1ccc(-n2ccnc2)cc1CN(CC(C)C)C(=O)Nc1c(C)cccc1OCCCN1CCN(c2ccccc2)CC1", "note": "[Example 73]", "IC50": 458}
{"molecule": "COc1ccc(-n2ccnc2)cc1CN(C(=O)Nc1c(C)cccc1OCCCN1CCN(c2ccccc2)CC1)C(C)C", "note": "[Example 74]", "IC50": 386}
